Assay results reported in PMC11672294, “The Antipsychotic Drug Aripiprazole Suppresses Colorectal Cancer by Targeting LAMP2a to Induce RNH1/miR‐99a/mTOR‐Mediated Autophagy and Apoptosis” (Advanced Science, 2024).
Where a name gives a salt, the structure may show the parent alone.

system: HT29; conditions: 72 h, relative to DMSO, 10 µM, Relative cell viability (%)
How it was run: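 HT29 viability used WST-1 reduction (2 h, 37 °C, A450) after 72 h of treatment; screening compounds were tested singly at 10 µM, with dimethyl sulfoxide as the comparison.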

| SMILES | Relative cell viability (%) |
| --- | --- |
| COc1cc(Nc2ncc(F)c(Nc3ccc4c(n3)N(COP(=O)(O)O)C(=O)C(C)(C)O4)n2)cc(OC)c1OC [Fostamatinib (R788)] | 28.64% |

same assay, conditions: 72 h, relative to DMSO; 10 µM

| SMILES | Relative cell viability (%) |
| --- | --- |
| CCC(=O)O[C@]1(C(=O)SCF)[C@H](C)C[C@H]2[C@@H]3C[C@H](F)C4=CC(=O)C=C[C@]4(C)[C@@]3(F)[C@@H](O)C[C@@]21C [Fluticasone propionate] | 173.6% |
| COCCCC/C(=N\OCCN)c1ccc(C(F)(F)F)cc1 [Fluvoxamine maleate] | 72.74% |
| C[C@]12CCC(=O)C(O)=C1CC[C@@H]1[C@@H]2CC[C@]2(C)C(=O)CC[C@@H]12 [Formestane] | 110.8% |
| C[C@@H](O[C@H]1OCCN(Cc2nc(O)n(P(=O)(O)O)n2)[C@H]1c1ccc(F)cc1)c1cc(C(F)(F)F)cc(C(F)(F)F)c1 [Fosaprepitant dimeglumine salt] | 111.6% |
| O=C1OC(CN2CCOCC2)CN1/N=C/c1ccc([N+](=O)[O-])o1 (centres unmarked) [Furaltadone HCl] | 75.76% |
| c1cn2cc(-c3ccc4cn[nH]c4c3)nc(Nc3ccc(N4CCOCC4)cc3)c2n1 [GS-9973] | 116.2% |
| COc1ncc(-c2ccc3nccc(-c4ccnnc4)c3c2)cc1NS(=O)(=O)c1ccc(F)cc1F [GSK2126458 (GSK458)] | 12.62% |
| CCOC(=O)c1ccc(OC(=O)CCCCCNC(=N)N)cc1 [Gabexate Mesylate] | 124.4% |
| C[C@]12CC[C@H](O)CC1=CC[C@@H]1[C@@H]2CC[C@]2(C)C(n3cnc4ccccc43)=CC[C@@H]12 [Galeterone] | 25.73% |
| Nc1nc(O)c2ncn(COC(CO)CO)c2n1 [Ganciclovir] | 103.4% |
| COc1c(N2CCNC(C)C2)c(F)cc2c(=O)c(C(=O)O)cn(C3CC3)c12 (centres unmarked) [Gatifloxacin] | 96.11% |
| O=c1c(-c2ccc(O)cc2)coc2cc(O)cc(O)c12 [Genistein] | 102.3% |
| C#C[C@]1(O)C=C[C@H]2[C@@H]3CCC4=CC(=O)CC[C@@H]4[C@H]3CC[C@@]21CC [Gestodene] | 69.63% |
| Oc1cc(O)c(Cl)cn1 [Gimeracil] | 117.6% |
| CCC1=C(C)CN(C(=O)NCCc2ccc(S(=O)(=O)NC(=O)N[C@H]3CC[C@H](C)CC3)cc2)C1=O [Glimepiride] | 64.95% |
| COc1ccccc1OCC(O)CO (centres unmarked) [Guaifenesin] | 74.15% |
| N=C(N)NC(=O)Cc1c(Cl)cccc1Cl [Guanfacine Hydrochloride] | 129.1% |
| O=C(CCCN1CCC(O)(c2ccc(Cl)cc2)CC1)c1ccc(F)cc1 [Haloperidol] | 29.34% |
| NC(=O)NO [Hydroxyurea] | 70.34% |
| C[C@H](Nc1ncnc2[nH]cnc12)c1cc2cccc(Cl)c2c(=O)n1-c1ccccc1 [IPI-145 (INK1197)] | 79.06% |
| C=CC(=O)N1CCC[C@@H](n2nc(-c3ccc(Oc4ccccc4)cc3)c3c(N)ncnc32)C1 [Ibrutinib (PCI-32765)] | 53.4% |
| CCCCCCCN(CC)CCCC(O)c1ccc(NS(C)(=O)=O)cc1 (centres unmarked) [Ibutilide Fumarate] | 112% |
| COc1cc(C(=O)O)ccc1NC(=O)[C@@H]1N[C@@H](CC(C)(C)C)[C@](C#N)(c2ccc(Cl)cc2F)[C@H]1c1cccc(Cl)c1F [Idasanutlin (RG-7388)] | 98.29% |
| COC1=C(OC)C(=O)C(CCCCCCCCCCO)=C(C)C1=O [Idebenone] | 41.75% |

| SMILES | Relative cell viability (%) |
| --- | --- |
| O=c1[nH]c(=O)n([C@H]2C[C@H](O)[C@@H](CO)O2)cc1I [Idoxuridine] | 86.86% |
| O=P1(NCCCl)OCCCN1CCCl (centres unmarked) [Ifosfamide] | 92.99% |
| CNC(=O)[C@H](Cc1c[nH]c2ccccc12)NC(=O)[C@@H](CC(=O)NO)CC(C)C [Ilomastat (GM6001, Galardin)] | 95.73% |
| CCOC(=O)[C@H](CCc1ccccc1)N[C@@H](C)C(=O)N1C(=O)N(C)C[C@H]1C(=O)O [Imidapril HCl] | 128.5% |
| CC1Cc2ccccc2N1NC(=O)c1ccc(Cl)c(S(N)(=O)=O)c1 (centres unmarked) [Indapamide] | 71.61% |
| CCc1c2c(nc3ccc(OC(=O)N4CCC(N5CCCCC5)CC4)cc13)-c1cc3c(c(=O)n1C2)COC(=O)[C@]3(O)CC [Irinotecan HCl Trihydrate] | 113.8% |
| Nc1nc(N)nc(-c2cc(Cl)ccc2Cl)n1 [Irsogladine] | 176.5% |
| NNC(=O)c1ccncc1 [Isoniazid] | 140.3% |
| O[C@@H]1CO[C@H]2[C@@H]1OC[C@@H]2O [Isosorbide] | 83.94% |
| CC1=C(/C=C/C(C)=C/C=C/C(C)=C\C(=O)O)C(C)(C)CCC1 [Isotretinoin] | 60.28% |
| COc1cc2c(cc1OC)CC(=O)N(CCCN(C)C[C@H]1Cc3cc(OC)c(OC)cc31)CC2 [Ivabradine HCl] | 110.8% |
| O=C(/C=C\n1cnc(-c2cc(C(F)(F)F)cc(C(F)(F)F)c2)n1)NNc1cnccn1 [KPT-330] | 44.44% |
| CN1CCC(=C2c3ccccc3CC(=O)c3sccc32)CC1 [Ketotifen Fumarate] | 182.5% |
| N[C@@H](Cc1cc(I)c(Oc2cc(I)c(O)c(I)c2)c(I)c1)C(=O)O [L-Thyroxine] | 67.96% |
| C[N+](C)(C)C[C@H](O)CC(=O)[O-] [L-carnitine] | 116.1% |
| Cc1c(C(=O)Nc2ccc(N3C[C@@H](C)O[C@@H](C)C3)nc2)cccc1-c1ccc(OC(F)(F)F)cc1 [LDE225 (NVP-LDE225,Erismodegib)] | 111.4% |
| Cc1cc(Nc2ncc(Cl)c(Nc3ccccc3S(=O)(=O)C(C)C)n2)c(OC(C)C)cc1C1CCNCC1 [LDK378] | 0% |
| CN(C)C(=O)c1cc2cnc(Nc3ccc(N4CCNCC4)cn3)nc2n1C1CCCC1 [LEE011] | 66.24% |
| Cc1cccc(-c2nn3c(c2-c2ccnc4ccc(C(N)=O)cc24)CCC3)n1 [LY2157299] | 106.7% |
| Cc1cc(Nc2cc(CN3CCOCC3)c3nc(C)c(Cc4ccc(Cl)cc4F)n3n2)n[nH]1 [LY2784544] | 102.6% |
| CCN1CCN(Cc2ccc(Nc3ncc(F)c(-c4cc(F)c5nc(C)n(C(C)C)c5c4)n3)nc2)CC1 [LY2835219] | 5.983% |
| CC(CCc1ccccc1)NCC(O)c1ccc(O)c(C(N)=O)c1 (centres unmarked) [Labetalol HCl] | 55.76% |
| CCOC(=O)C1=C(C)NC(C)=C(C(=O)OCC)C1c1ccccc1/C=C/C(=O)OC(C)(C)C [Lacidipine] | 79.32% |
| O=C(C[S+]([O-])Cc1ccco1)NC/C=C\COc1cc(CN2CCCCC2)ccn1 (centres unmarked) [Lafutidine] | 119.6% |

| SMILES | Relative cell viability (%) |
| --- | --- |
| Nc1nnc(-c2cccc(Cl)c2Cl)c(N)n1 [Lamotrigine] | 100% |
| Cc1c(OCC(F)(F)F)ccnc1C[S+]([O-])c1nc2ccccc2[nH]1 (centres unmarked) [Lansoprazole] | 63.4% |
| CS(=O)(=O)CCNCc1ccc(-c2ccc3ncnc(Nc4ccc(OCc5cccc(F)c5)c(Cl)c4)c3c2)o1 [Lapatinib] | 94.3% |
| COC(=O)N[C@H](C(=O)N1CC2(CC2)C[C@H]1c1ncc(-c2ccc3c(c2)C(F)(F)c2cc(-c4ccc5nc([C@@H]6[C@H]7CC[C@H](C7)N6C(=O)[C@@H](NC(=O)OC)C(C)C)[nH]c5c4)ccc2-3)[nH]1)C(C)C [Ledipasvir (GS5885)] | 80.34% |
| Cc1oncc1C(=O)Nc1ccc(C(F)(F)F)cc1 [Leflunomide] | 55.61% |
| N#Cc1ccc(C(c2ccc(C#N)cc2)n2cncn2)cc1 [Letrozole] | 82.09% |
| CC[C@@H](C(N)=O)N1CCCC1=O [Levetiracetam] | 78.97% |
| C[C@H]1COc2c(N3CCN(C)CC3)c(F)cc3c(=O)c(C(=O)O)cn1c23 [Levofloxacin] | 124% |
| C[C@@H]1CC(=O)NN=C1c1ccc(NN=C(C#N)C#N)cc1 [Levosimendan] | 103.1% |
| CCN1CCC[C@H]1CNC(=O)c1cc(S(N)(=O)=O)ccc1OC [Levosulpiride] | 114.3% |
| CC1(C)Cc2c(-c3ccccc3)c(-c3ccc(Cl)cc3)c(CC(=O)O)n2C1 [Licofelone] | 137.9% |
| CC#CCn1c(N2CCC[C@@H](N)C2)nc2c1c(=O)n(Cc1nc(C)c3ccccc3n1)c(=O)n2C [Linagliptin] | 66.5% |
| N[C@@H](Cc1cc(I)c(Oc2ccc(O)c(I)c2)c(I)c1)C(=O)O [Liothyronine Sodium] | 85.76% |
| O=C(NC1CCN(CCCCC2(C(=O)NCC(F)(F)F)c3ccccc3-c3ccccc32)CC1)c1ccccc1-c1ccc(C(F)(F)F)cc1 [Lomitapide Mesylate] | 0% |
| NC(=O)N1CCC(CC(=O)N2CCC([C@H]3c4ncc(Br)cc4CCc4cc(Cl)cc(Br)c43)CC2)CC1 [Lonafarnib] | 95.63% |
| O=C(O)c1nn(Cc2ccc(Cl)cc2Cl)c2ccccc12 [Lonidamine] | 47.57% |
| Cc1cccc(C)c1OCC(=O)N[C@@H](Cc1ccccc1)[C@@H](O)C[C@H](Cc1ccccc1)NC(=O)[C@H](C(C)C)N1CCCNC1=O [Lopinavir] | 55.61% |
| CN1C(C(=O)Nc2ccccn2)=C(O)c2sc(Cl)cc2S1(=O)=O [Lornoxicam] | 228.6% |
| CCCCc1nc(Cl)c(CO)n1Cc1ccc(-c2ccccc2-c2nn[nH]n2)cc1 [Losartan Potassium (DuP 753)] | 88.32% |
| Cc1c(F)cc(C(=O)NC2CC2)cc1-c1ccc(C(=O)NCC(C)(C)C)cn1 [Losmapimod (GW856553X)] | 94.44% |
| CC[C@H](C)C(=O)O[C@H]1C[C@@H](C)C=C2C=C[C@H](C)[C@H](CC[C@@H]3C[C@@H](O)CC(=O)O3)[C@H]21 [Lovastatin] | 169.7% |
| CC(C(=O)O)c1ccc(CC2CCCC2=O)cc1 (centres unmarked) [Loxoprofen] | 82.91% |
